According to patent US9333208B2, “HCN inhibitors affecting ganglion cell function and visual function” (Allergan, Inc., priority 2013, dated 2016):

Tests used:
HCN channel current (Ih) = HCN channel current (Ih) measurement, voltage clamp of retinal ganglion cells; format: cell-based, Brown Norway rats; conditions: different concentrations; clamped at -60 mV, stepped to -80, -100 and -120 mV for 1 second; FIG. 11
retinal ganglion cells = assay: Retinal ganglion cell input resistance measurement, voltage clamp; format: cell-based, Brown Norway rats; conditions: different concentrations; clamped at -60 mV, stepped to -55 mV; FIG. 12

## COc1cc2c(cc1OC)CC(=O)N(CCCN(C)C[C@H]1Cc3cc(OC)c(OC)cc31)CC2 [Ivabradine, 3-[3-({[(7S)-3,4-dimethoxybicyclo[4.2.0]octa-1,3,5-trien-7-yl]methyl}(methyl)amino)propyl]-7,8-dimethoxy-2,3,4,5-tetrahydro-1H-3-benzazepin-2-one]
HCN channel current (Ih)
  retinal ganglion cell HCN (Ih) mediated current: statistically significant decrease
Retinal ganglion cells
  retinal ganglion cell input resistance: increased with every concentration of Ivabradine in a linear manner
